Data published in US8673289B2, “Attenuated uracil auxotroph of an apicomplexan and use thereof” (priority 2007, dated 2014).

How the values were obtained:
[1] = system: T. gondii carrying a single allele of TK from pDHFRm2m3-TK-TS; experiment: plaque formation in ganciclovir, TK-transfected parasites; format: cell-based, Toxoplasma gondii
Description: A modified hit and run mutagenesis was devised for knocking out the T. gondii gene encoding CPSII. First, a new plasmid vector was developed for positive and negative selection analogous to the plasmid described by Fox, et al. ((1999) Mol. Biochem. Parasitol. 98:93-103), except using the herpes simplex virus type I thymidine kinase (TK) gene instead of bacterial cytosine deaminase in the linker region of DHFR-TS. To create this plasmid two primers, a forward primer GGGAGATCTATGGCTTCGTACCCCGGCCATCAA (SEQ ID NO:10) and a reverse primer GGGGATCCTCAGTTAGCCTCCCCCATCTCCCG (SEQ ID NO:11) were used to PCR amplify, via standard conditions, the ganciclovir hypersensitive TK75 HSVTK allele (Black, et al. (1996) Proc. Natl Acad. Sci. USA 93:3525-3529). The forward primer contains a BglII site and the reverse primer a BamHI site. Following BamHI and BglII digestion of the ˜1130 bp PCR product, the TK allele was ligated into plasmid pDHFRm2m3-FLG-TS which was digested at the unique BamHI site in the FLAG epitope linker. The TK PCR primers were designed to join with pDHFRm2m3-FLG-TS to produce an in-frame insertion of TK between DHFR and TS in a plasmid called pDHFRm2m3-TK-TS, similar to previously described pDHFRm2m3-CD-TS plasmid (Fox, et al. (1999) supra). The trifunctional enzyme plasmid with TK was tested to confirm function of all three enzymes. […]

[2] = system: mutants cps1, cps2, cps3, cps4; experiment: plaque formation in ganciclovir, cps mutants; format: cell-based, Toxoplasma gondii
cps1-1 and cps2-1 [3] = experiment: drug sensitivity of cps1-1 and cps2-1 in replication and plaque assays; format: cell-based, Toxoplasma gondii; conditions: 10 μM
Description: It is believed that the single recombination into the CPSII locus only partially disrupted expression of CPSII activity in cps1 and cps2. […] Cps1 and cps2 were thus utilized as the parent strain background in which to select a more highly attenuated pyrimidine auxotroph mutant. Both the cps1 and cps2 mutants express a TK allele which was inserted into the CPSII locus. […] Then, approximately 1-2×10^5 cps1 or cps2 parasites was inoculated into a 25 cm^2 HFF flask and selected negatively in the presence of 10 μM ganciclovir plus 200 μM uracil. This is 20 times the dose of ganciclovir necessary to completely block plaque formation of these mutants. […] The parasites which were growing in ganciclovir plus uracil were subcloned in ganciclovir and uracil (same conditions) and individual clones, cps1-1 and cps2-1, were identified from each parent, respectively, for further analysis. The cps1-1 and cps2-1 subclones were first tested for their sensitivity to pyrimethamine. The theory of negative selective in only ganciclovir is that a mutant that disrupts expression of the TK allele should simultaneously acquire sensitivity to pyrimethamine due to loss of the expression of the fused trifunctional DHFR-TK-TS transgene(s) inserted into the CPSII locus of cps1 and cps2.

wild-type T. gondii = experiment: labeling of parasites with [3H]pyrimidines (pyrimidine salvage); format: cell-based, Toxoplasma gondii; conditions: parasites grown in host cells
Procedure: (§1) Initial experiments primarily involved an enzymatic analysis of drug resistant mutants and the incorporation of various pyrimidine analogs into T. gondii RNA and DNA as an indication of pyrimidine salvage when parasites were grown in either normal host or mutant host cells. All biochemical communications between the parasite and host cells cross the vacuolar membrane which is now known to contain “pores” that permit the passage of nucleobases ranging in molecular mass from 112 daltons up to 244 daltons. The size of the pores is estimated to be approximately 1500 daltons. A T. gondii mutant resistant to 5-fluorodeoxyuridine (FUDR-1) had lost uracil phosphoribosyltransferase (UPRT), an enzyme which is absent in normal host cells (Pfefferkorn (1978) Expt. Parasitol. 44:26-35). […] FUDR-1 mutant parasites were not labeled with [^3H]deoxyuridine. […] FUDR-1 mutant parasites were not labeled with [^3H]uridine. […] FUDR-1 (UPRT knock-out) parasites were not labeled with [^3H]uracil.
Similarly, since uracil only labels the parasite, due to the parasite UPRT, which is absent in the host, the pyrimidine pools of the parasite are also unavailable to the host. Thus, there is no detectable pyrimidine traffic detected between the parasite and host.

FUDR-1 mutant parasites = experiment: labeling of FUDR-1 (UPRT knock-out) parasites with [3H]pyrimidines; format: cell-based, Toxoplasma gondii
Procedure: as §1

tachyzoites = experiment: uracil incorporation assay; format: cell-based, Toxoplasma gondii; conditions: [3H]uracil 25 μg/ml
Procedure: Experiments to evaluate the feasibility of constructing pyrimidine auxotrophs of T. gondii were performed. Pyrimidine auxotrophy relies on the ability to feed mutant parasites a pyrimidine nucleobase, such as uracil, in culture medium in amounts that will restore parasite growth to near normal levels. Experiments were therefore conducted to measure whether uracil incorporation into parasites in culture could account for normal replication and normal growth rates. In these experiments, biochemically saturating amounts of [^3H]uracil (25 μg/ml) were added to the growth medium and the quantitative incorporation of label into parasite RNA and DNA was determined over a four hour interval. It was calculated using known values that about 82% of the pyrimidines incorporated into parasite nucleic acids were derived from the uracil which was added to the growth medium as a supplement.
The uracil incorporation assay, results and calculation of uracil incorporation were carried out as follows. Parasites (2.09×10^7) were labeled for 4 hours in medium containing [^3H]uracil at 25 μg per ml or 0.223 μmole per ml, wherein the specific activity of uracil was 34.3 CPM per pmole (CPM=counts per minute). […] Based upon these parameters, it was concluded that 82% of incorporated pyrimidines originate from uracil when it is added to medium.

cps1 and cps2 mutants = experiment: pyrimidine dependence of cps1 and cps2 replication and plaque formation; format: cell-based, Toxoplasma gondii; conditions: for rescue of growth rate / replication of cps1 and cps2: relatively low (thymine, thymidine: moderate) concentrations in medium
Description: However, all of these mutants are somewhat “leaky” in that there was not an absolute growth (replication) dependence on uracil addition to the growth medium for replication. Each of these mutants grows at a moderate (½ of normal) growth rate for the first 2 days following infection of a host cell producing vacuoles that contained 16 to 32 parasites by 3 days post infection. In contrast, RH parasites are lysed out of their primary vacuoles at this time (3 days, >64 parasites). However, the cps mutants slow after 3 days and many parasites never (about ⅓) break out of their primary vacuole. If the primary vacuole breaks, a few parasites can be detected at the site of infection but the infection site always involves a small zone of infection that never forms a visible plaque in a standard 7 day plaque assay. To quantitate growth of these mutants, HFF flasks were inoculated with […] or cps2 parasites (about a multiplicity of infection (MOI) of 1 parasite per 20 HFF cells). After 2 hours of attachment and invasion (all of these mutants have normal attachment and invasion phenotypes as scored by counting percent entered parasites into host cells as a function of time post-inoculation), different concentrations of different pyrimidine compound was added to parallel infected HFF flasks. As a function of time post pyrimidine addition (t=0 hour) the number of parasites per vacuole was scored for 50 vacuoles as described by Fox et al. ((1999) supra). The number of parasite doublings was calculated based on 1 parasite entering each primary vacuole. Thus, 1 doubling=2 parasites per vacuole, 3 doublings=8 parasites per vacuole, and 5 doublings=32 parasites per vacuole. The pyrimidine dependence of cps1 and cps2 replication (doublings of parasites in the vacuole) was plotted graphically. […] The response to thymine and thymidine was additionally informative about the cause of the growth defect in cps1 and cps2. […] This is believed to be caused by the putative defect in the cps1 and cps2 mutants which is a reduced “pool” size of UMP. If UMP pools (ultimately used for RNA and DNA synthesis) are lowered it follows that a resulting decrease in TMP pools is expected since UMP is the precursor of TMP in T. gondii and all other apicomplexan parasites which normally lack TK activity. However, since cps1 and cps2 now express a TK activity carried into the parasite by the p53KOX3-1R plasmid, exemplified by sensitivity of these mutants to ganciclovir (specific to HSV TK), feeding parasites either thymine or thymidine is expected to increase TMP pools. Thus, it appears that moderate levels of thymine or thymidine partially rescue growth of cps1 and cps2 by restoring TMP pools. […] Since the parasite has no mechanism to convert TMP back to UMP there is still a defect in the UMP pool in cps1 and cps2 even with added thymine or thymidine and rescue is never complete. The ability of cps1 and cps2 mutants to form plaques on HFF monolayers in the standard 7 day assay paralleled the pyrimidine dependence of parasite replication in vacuoles.
The cps1 and cps2 mutants were inoculated intraperitoneally (i.p.) into balb/c mice to measure parasite virulence compared to virulent RH parasites. Both mutant cps1 and cps2 had equal virulence as RH parasites in balb/c mice (Jackson Labs), killing all mice within 10 days of i.p. inoculation (group size was four mice per parasite strain). Only 100 parasites (˜50 PFU) of each parasite strain was needed to kill all mice in each group. This pattern of virulence can be understood by re-examining the pyrimidine dependence of cps1 and cps2 growth. Uridine is believed to be the pyrimidine responsible for virulence of cps1 and cps2 in mice. Only 5 μM uridine completely rescues normal plaque size of cps1 and cps2 in vitro. Plasma concentrations of uridine in mice are approximately 5 to 10 μM.

cps1-1 and cps2-1 [4] = experiment: pyrimidine rescue of cps1-1 and cps2-1 replication and plaque formation; format: cell-based, Toxoplasma gondii; conditions: for rescue of replication (doublings) of cps1-1 and cps2-1: 36-hour replication assay, HFF
Procedure: No pyrimidine compound at less than 25 μM could rescue plaque formation of cps1-1 or cps2-1. […] Uridine was quite poor at rescue of plaque formation in cps1-1 and cps2-1.
A more detailed growth response to pyrimidine, measured as parasite replications (doublings) was performed for cps1-1 and cps2-1 and compared to the results previously obtained for […]. […] Uridine rescue was poor, with a slow restoration of growth at very high amounts, >400 μM. Deoxyuridine rescue was significant, but again, full growth rate was not restored at any concentration of deoxyuridine. Rescue with uracil was robust, but only in a limited range of concentration. Full restoration of growth rate in cps1-1 and cps2-1 was possible only with uracil added between 200 and 400 μM. […] This phenotype can only be observed in T. gondii pyrimidine auxotroph mutants, not in wild-type parasites with intact de novo pyrimidine synthesis pathways.
The pyrimidine growth dependence of mutant cps1-1 on the pyrimidine salvage pathway was further documented in thymidine interference experiments. Mutant cps1-1 plaques well in 250 μM uracil or deoxyuridine, but not in 1000 μM thymidine. Since thymidine at 1000 μM is known to inhibit approximately 90% of the parasite nucleoside phosphorylase activity specific for cleavage of deoxyuridine (Iltzsch, (1993) J. Euk. Micro. 40:24-28), growth of cps1-1 was tested in combinations of 1000 μM thymidine and 250 μM uracil or 250 μM deoxyuridine. All pyrimidine salvage in T. gondii must pass through uracil and UPRT conversion of uracil to UMP. In contrast, thymidine has no effect on UPRT activity. Thus, if growth of cps1-1 were dependent on deoxyuridine supplementation then replication in this condition may be inhibited by co-supplementing with 1000 μM thymidine. […] Thus, when cps1-1 is grown in deoxyuridine the parasite strictly requires nucleoside phosphorylase activity to cleave deoxyuridine for growth. […] Thus, cps1-1 and cps2-1 rely strictly on pyrimidine salvage enzymes for growth and further, the HFF host cell in vitro cannot supply sufficient pyrimidines for growth of cps1-1 or cps2-1. […] Such potential inhibitors can only be identified using a pyrimidine auxotroph such as provided in the instant invention.
To assess reversion, 10^6 to 10^7 cps1-1 or cps2-1 parasites were periodically inoculated into HFF flasks supplemented with 5 μM uridine. This concentration of uridine is sufficient to rescue the parent strains (cps1 and cps2) of cps1-1 and cps2-1.

RH parasite = experiment: plaque formation of RH in very high uracil; format: cell-based, Toxoplasma gondii; conditions: 2000 or 4000 μM uracil
[5] = system: parasite nucleoside phosphorylase activity specific for cleavage of deoxyuridine; conditions: thymidine at 1000 μM; cited from earlier work

Compound	ganciclovir concentration in which parasites do not form plaques [1] [μm]	ganciclovir concentration at which ability to form plaques is lost [2] [µM]	sensitivity of cps1-1 and cps2-1 to ganciclovir (cps1-1 and cps2-1 [3])	incorporation of [3H]-labeled pyrimidine into wild-type parasites (wild-type T. gondii)	labeling of FUDR-1 mutant parasites with [3H]pyrimidine (FUDR-1 mutant parasites)	actual incorporation (tachyzoites)	rescue of growth rate / replication of cps1 and cps2 (cps1 and cps2 mutants)	plaque formation of cps1-1 (cps1-1 and cps2-1 [4]; 250 μM supplement)	rescue of replication (doublings) of cps1-1 and cps2-1 (cps1-1 and cps2-1 [4])	plaque formation of cps1-1, cps2-1, cps1 and cps2 (cps1-1 and cps2-1 [4]; 2000 or 4000 μM uracil)	uracil concentration above which growth rate is reduced significantly (cps1-1 and cps2-1 [4]; cps1-1, cps2-1) [µM]	rescue of plaque formation of cps1-1 and cps2-1 (cps1-1 and cps2-1 [4]; plaque assay)	rescue of plaque formation of cps1-1 and cps2-1 (cps1-1 and cps2-1 [4]; pyrimidine concentrations up to 200 μM)	effect on RH parasite plaques (RH parasite)	rescue of replication of cps1 and cps2 (cps1 and cps2 mutants; very high concentrations)	plaque formation of cps1-1 (cps1-1 and cps2-1 [4]; 1000 μM thymidine)	effect on deoxyuridine-dependent growth of cps1-1 (cps1-1 and cps2-1 [4]; 1000 μM thymidine plus 250 μM deoxyuridine)	effect on UPRT or uracil dependent growth of cps1-1 (cps1-1 and cps2-1 [4]; 1000 μM thymidine plus 250 μM uracil)	inhibition of parasite nucleoside phosphorylase activity [5]
Nc1nc(O)c2ncn(COC(CO)CO)c2n1 [ganciclovir]	0.5	0.5	loss of sensitivity																
O=c1cc[nH]c(=O)[nH]1 [uracil]				incorporated into wild-type T. gondii	not labeled	0.00032 pmoles pyrimidine per tachyzoite per 4 hours	completely rescued	plaques well	robust	do not even form plaques	> 500	significant growth rescue	completely rescued	no effect					
Cc1cn([C@H]2C[C@H](O)[C@@H](CO)O2)c(=O)[nH]c1=O [thymidine]				did not incorporate			partially rescued		remained as a single non-replicated parasite			no response was detected			did not rescue replication	not	did block	did not affect	approximately 90%
